Test results reported in US12466821B2 (Novartis AG, priority 2018, dated 2025).
Read-outs that look alike come from different tables or passages of the source.

Assays:
[1] = test system: Luciferase-encoding HCMV, AD169 strain; test: CMV Luciferase assay (cellular herpesvirus replication); format: cell-based
In short: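 Neonatal human dermal fibroblasts were pretreated 1 h with compound (final 0.0159–50 μM or 0.00318–10 μM, 0.5% DMSO), then infected at MOI 1 with AD169 carrying pp28-promoter luciferase. After 72 h at 37 °C, Renilla-Glo luminescence normalized to no-virus and virus-only controls; EC50 by 4-parameter logistic model.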

[2] = test system: EBV (SNU-719 gastric carcinoma cell line latently infected with EBV); test: EBV qPCR assay (cellular herpesvirus replication); format: cell-based; details: human gammaherpesvirus 4; SNU-719 cells, TPA/NaB reactivation, qPCR after 72 hrs; n>3, value (+/- spread)
Experimental: For all viral assays, 10 mM DMSO stock compound solutions were serially diluted in DMSO at 3.16 fold dilutions in 96-well clear round bottom plates. Compounds were then diluted in assay media at 1:20 and subsequently 10 μL of these dilutions were added to cells for final compound concentrations ranging either from 0.0159 μM to 50 μM in 0.5% DMSO/assay media, or from 0.00318 to 10 μM in 0.5% DMSO/assay media.
EBV qPCR assay: The assay uses the SNU-719 gastric carcinoma cell line which is latently infected with EBV. Upon reactivation with chemical reagents, EBV DNA copy number was measured by qPCR. Viral replication in the presence or absence of compounds was measured according to the following procedure: SNU-719 cells were plated at 2×10^4 cells/well in 96-well clear bottom plates, black in 80 μL/well of assay media: 2% FBS in RPMI 1640 (ATCC cat # 30-2001). […]
qPCR reactions were carried out in a total reaction volume of 20 μL, using the QuantiFast® Multiplex PCR kit (Qiagen cat #204656). Eighteen μL of qPCR master mix (10 μL of 2× QuantiFast® Multiplex PCR Master Mix, 1 μL of 20× Primer/Probe Mix specific to housekeeping gene, 1 μL of 20× Primer/Probe Mix specific to viral gene, 6 μL of H2O) was distributed into each well of a 384 well plate. […]
Relative quantification was calculated with the ΔΔCT Method, and then converted into percent inhibitions. […]

With `N#Cc1ccc(CNC(=O)c2ccc3n(c2=O)CCN(CC2(S(=O)(=O)C4CC4)CC2)C3=O)cc1` [Example 1, N-(4-cyanobenzyl)-2-((1-(cyclopropylsulfonyl)cyclopropyl)methyl)-1,6-dioxo-2,3,4,6-tetrahydro-1H-pyrido[1,2-a]pyrazine-7-carboxamide] the EC50 ([1]; Human betaherpesvirus 5, AD169, read-out: CMV-Luc Cellular EC50) was 23.2 nM, the EC50 ([1]; Human betaherpesvirus 5, AD169, read-out: EC50 Human herpesvirus CMV) was 24 nM and the EC50 [2] was 12 nM.
